Reference: US20120183524A1, “MOLECULAR TARGETS FOR TREATMENT OF INFLAMMATION” (University Of Rochester, priority 2007, published 2012)
Non-standard residues stand in square brackets, D forms with d. Residues, ends and D or L forms follow the SMILES beside them. Nle = CCCC[C@H](N)C(=O)O

Tested on: RelB
Test: RelB, IKKα, NIK and RelA/p65 levels by western blotting in CSE-treated Ramos B-cells
Format: cell-based, human
Details: B-cells pretreated with ALLN 25 μM for 20 min, then CSE 0.5% and 1.0% for 1 h; whole cell lysates, immunoblotting
Method: MonoMac6-, Ramos B- and WEHI-231-cells were seeded at a density of less than 1×10^6 cells/well (total final volume=2 ml), grown to ˜80-90% confluency in six-well plates containing RPMI 1640 medium with 10% FBS, washed in Ca2+- and Mg2+-free PBS, and then exposed to various treatments in media containing 1% serum. All treatments were performed in duplicate. The cells were treated with CSE (0.5, 1.0 and 5%) for 1 h at 37° C. with 7.5% CO2. At the end of treatment, the cells were washed with cold, sterile Ca2+- and Mg2+-free PBS and were lysed in RIPA buffer as whole lysate (western blotting), and the lysates stored at −80° C. […]
Lung tissue homogenate samples (cytoplasmic and nuclear proteins) were separated on a 7.5%-12% SDS-PAGE. […] The next day, membranes were washed and incubated for 1 h at room temperature with the appropriate secondary antibody linked to horseradish peroxidase (Dako, Santa Barbara, Calif.), bound complexes were detected with the use of the enhanced chemiluminescence method (Jackson Immunology Research, West Grove, Pa.).

For `CCCC[C@@H](C=O)NC(=O)[C@H](CC(C)C)NC(=O)[C@H](CC(C)C)NC(C)=O` [ALLN] (Ac-Leu-Leu-[Nle]-aldehyde), the “degradation of RelB in response to CSE” value was “prevented the degradation of RelB”.
